Experiment: xn = mol fraction of the nth substance listed
Conditions: 100 kPa, Liquid; for viscosity: Falling or rolling sphere viscometry; for mass density: Vibrating tube method

CCCCCCCO [heptan-1-ol] + CCCCCCCCCCCC
Conditions	mass density [kg/m3]	viscosity [mPa·s]
293.15 K, x2 = 0.0998	810.76	5.346
293.15 K, x2 = 0.2005	800.65	4.224
293.15 K, x2 = 0.302	791.28	3.358
293.15 K, x2 = 0.3991	783.4	2.778
293.15 K, x2 = 0.4989	776.02	2.363
293.15 K, x2 = 0.5994	769.4	2.052
293.15 K, x2 = 0.6975	763.54	1.835
293.15 K, x2 = 0.7959	758.2	1.677
293.15 K, x2 = 0.8984	753.19	1.538
298.15 K, x2 = 0.0998	807.24	4.555
298.15 K, x2 = 0.2005	797.07	3.626
298.15 K, x2 = 0.302	787.66	2.917
298.15 K, x2 = 0.3991	779.77	2.444
298.15 K, x2 = 0.4989	772.37	2.098
298.15 K, x2 = 0.5994	765.74	1.837
298.15 K, x2 = 0.6975	759.88	1.653
298.15 K, x2 = 0.7959	754.54	1.516
298.15 K, x2 = 0.8984	749.53	1.397
303.15 K, x2 = 0.0998	803.68	3.91
303.15 K, x2 = 0.2005	793.46	3.144
303.15 K, x2 = 0.302	784.02	2.559
303.15 K, x2 = 0.3991	776.11	2.168
303.15 K, x2 = 0.4989	768.69	1.878
303.15 K, x2 = 0.5994	762.06	1.655
303.15 K, x2 = 0.6975	756.19	1.498
303.15 K, x2 = 0.7959	750.85	1.38
303.15 K, x2 = 0.8984	745.85	1.276
308.15 K, x2 = 0.0998	800.09	3.381
308.15 K, x2 = 0.2005	789.82	2.745
308.15 K, x2 = 0.302	780.35	2.26
308.15 K, x2 = 0.3991	772.42	1.935
308.15 K, x2 = 0.4989	765	1.69
308.15 K, x2 = 0.5994	758.35	1.5
308.15 K, x2 = 0.6975	752.48	1.364
308.15 K, x2 = 0.7959	747.14	1.262
308.15 K, x2 = 0.8984	742.15	1.172
313.15 K, x2 = 0.0998	796.48	2.94
313.15 K, x2 = 0.2005	786.16	2.412
313.15 K, x2 = 0.302	776.66	2.009
313.15 K, x2 = 0.3991	768.72	1.736
313.15 K, x2 = 0.4989	761.28	1.528
313.15 K, x2 = 0.5994	754.63	1.365
313.15 K, x2 = 0.6975	748.76	1.247
313.15 K, x2 = 0.7959	743.42	1.158
313.15 K, x2 = 0.8984	738.43	1.08
318.15 K, x2 = 0.0998	792.81	2.573
318.15 K, x2 = 0.2005	782.46	2.134
318.15 K, x2 = 0.302	772.94	1.795
318.15 K, x2 = 0.3991	764.98	1.566
318.15 K, x2 = 0.4989	757.54	1.388
318.15 K, x2 = 0.5994	750.88	1.247
318.15 K, x2 = 0.6975	745.01	1.145
318.15 K, x2 = 0.7959	739.67	1.066
318.15 K, x2 = 0.8984	734.71	0.999
323.15 K, x2 = 0.0998	789.12	2.266
323.15 K, x2 = 0.2005	778.74	1.896
323.15 K, x2 = 0.302	769.19	1.612
323.15 K, x2 = 0.3991	761.22	1.417
323.15 K, x2 = 0.4989	753.77	1.265
323.15 K, x2 = 0.5994	747.11	1.143
323.15 K, x2 = 0.6975	741.23	1.054
323.15 K, x2 = 0.7959	735.9	0.986
323.15 K, x2 = 0.8984	730.96	0.928
328.15 K, x2 = 0.0998	785.39	2.006
328.15 K, x2 = 0.2005	774.97	1.694
328.15 K, x2 = 0.302	765.4	1.454
328.15 K, x2 = 0.3991	757.43	1.288
328.15 K, x2 = 0.4989	749.97	1.158
328.15 K, x2 = 0.5994	743.31	1.051
328.15 K, x2 = 0.6975	737.44	0.974
328.15 K, x2 = 0.7959	732.12	0.915
328.15 K, x2 = 0.8984	727.21	0.864
333.15 K, x2 = 0.0998	781.62	1.785
333.15 K, x2 = 0.2005	771.18	1.522
333.15 K, x2 = 0.302	761.59	1.317
333.15 K, x2 = 0.3991	753.6	1.175
333.15 K, x2 = 0.4989	746.14	1.063
333.15 K, x2 = 0.5994	739.49	0.97
333.15 K, x2 = 0.6975	733.61	0.902
333.15 K, x2 = 0.7959	728.31	0.851
333.15 K, x2 = 0.8984	723.43	0.807

— the NIST ThermoML archive (doi:10.1021/acs.jced.6b00688)
